In this experiment the target is T1, human CRTH2 (Homo sapiens, UniProt Q9Y5Y4).
T1 construct: expressed in transfected cells; host or cells: CHO-K1
T1 sequence (Q9Y5Y4 1-395): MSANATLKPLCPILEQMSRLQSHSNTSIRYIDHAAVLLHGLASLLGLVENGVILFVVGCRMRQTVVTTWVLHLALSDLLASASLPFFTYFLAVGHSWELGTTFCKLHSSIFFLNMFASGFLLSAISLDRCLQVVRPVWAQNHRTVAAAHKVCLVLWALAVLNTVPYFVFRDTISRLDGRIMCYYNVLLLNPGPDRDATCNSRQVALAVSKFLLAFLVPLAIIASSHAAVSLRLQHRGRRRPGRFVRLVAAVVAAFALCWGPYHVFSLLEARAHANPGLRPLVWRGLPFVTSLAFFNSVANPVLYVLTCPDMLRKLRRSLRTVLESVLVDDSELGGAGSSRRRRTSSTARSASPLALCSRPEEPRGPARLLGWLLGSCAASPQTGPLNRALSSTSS
The experiment is described as follows: Human CRTH2 Receptor Binding Assay (whole cell, [3H]ramatroban competition). Particulars: CHO-K1 cells expressing human CRTH2 and G-alpha16; 20 nM [3H]ramatroban; 1 hour, room temperature. The source says:
A whole cell receptor binding assay using [^3H]ramatroban as the competing radioactive ligand was employed to evaluate the compound binding activity to human CRTH2. The radioactive ligand [^3H]ramatroban was synthesized according to Sugimoto et. al. (Eur. J. Pharmacol. 524, 30-37, 2005) to a specific activity of 42 Ci/mmol.
A cell line stably expressing human CRTH2 was established by transfecting CHO-K1 cells with two mammalian expression vectors that harbored human CRTH2 and G-alpha16 cDNAs, respectively, using FuGene® 6 transfection reagent (from Roche). Stable clones expressing CRTH2 were selected by staining each clone with BM16 (BD Pharmingen™ from BD Biosciences, a division of Becton, Dickinson and Company), which is a rat monoclonal antibody to human CRTH2. The cells were maintained as monolayer cultures in Ham's F-12 medium containing 10% fetal bovine serum, 100 units/mL penicillin, 100 μg/mL streptomycin, 2 mM glutamine, 0.5 mg/mL G418 (geneticin) for CRTH2, and 0.2 mg/mL hygromycin-B (for G-alpha 16). For whole cell receptor binding assay, the monolayer cells were rinsed once with PBS (phosphate buffered saline), dissociated using ethylenediaminetetraacetate (Versene™ EDTA from Lonza Inc.), and suspended in PBS containing 10 mM MgCl2 and 0.06% BSA (bovine serum albumin) at 1.5×10^6 cells/mL.
The binding reactions (0.2 mL) were performed in 96-well plates at room temperature in PBS containing 1.5×10^5 cells, 10 mM MgCl2, 0.06% BSA, 20 nM [^3H]ramatroban, and test compound at various concentrations. After 1 hour of binding reactions, the cells were harvested on GF™/B filter microplates (microtiter plates with embedded glass fiber from PerkinElmer, Inc.) and washed 5 times with PBS using a Filtermate™ Harvester (a cell harvester that harvests and washes cells from microplates from PerkinElmer, Inc.). The radioactivities bound to the cells were determined using a microplate scintillation counter (TopCount® NXT, from PerkinElmer, Inc.) after adding 50 μL of Microscint™ 20 scintillation fluid (from PerkinElmer, Inc.) to each well of the filter plates. The radioactivity from non-specific binding was determined by replacing compound with 10 μM of 15(R)-15-methyl PGD2 (from Cayman Chemical Company) in the reaction mixtures. The radioactivity bound to the cells in the absence of compound (total binding) was determined by replacing compound with 0.25% of DMSO (dimethyl sulfoxide) in the reaction mixture. Specific binding data were obtained by subtracting the radioactivity of non-specific binding from each binding data.
The IC50 value is defined as the concentration of the tested compound that is required for 50% inhibition of total specific binding. In order to calculate the IC50 value, the percent inhibition data were determined for 7 concentrations for each compound. The percent inhibition for a compound at each concentration was calculated according to the following formula, [1−(specific binding in the presence of compound)/(total specific binding)]×100. The IC50 value was then obtained by fitting the percent inhibition data to a sigmoidal dose-response (4 parameter logistic) model in the XLfit® software Excel add-in program [from ID Business Solutions Ltd., model 205, where F(x)=(A+(B−A)/(1+((C/x)^D)))].

A word on the IC50: it is the point on the concentration scale where inhibition reaches its midpoint. Lower therefore signals greater potency in that assay. As to `CCS(=O)(=O)c1ccc(Oc2cc(CC(=O)O)cc3ccc(C(F)(F)F)cc23)nc1` [Example 1-16, [4-(5-Ethanesulfonyl-pyridin-2-yloxy)-6-trifluoromethyl-naphthalen-2-yl]-acetic acid], the IC50 is 19.1 nM.
The value for `CCS(=O)(=O)c1ccc(Oc2c(C)c(CC(=O)O)cc3ccc(F)cc23)cc1Cl` [Example 2-19, [4-(3-chloro-4-ethanesulfonyl-phenoxy)-6-fluoro-3-methyl-naphthalen-2-yl]-acetic acid] was 12.4 nM; that for `CS(=O)(=O)c1ccc(Oc2cc(CC(=O)O)cc3ccc(F)cc23)nc1` [Example 1-9, [6-fluoro-4-(5-methanesulfonyl-pyridin-2-yloxy)-naphthalen-2-yl]-acetic acid] was 3.7 nM; that for `CS(=O)(=O)c1ccc([S+]([O-])c2cc(CC(=O)O)cc3ccc(F)cc23)cc1` (stereo not shown) [Example 10-1, [6-fluoro-4-(4-methanesulfonyl-benzenesulfinyl)-naphthalen-2-yl]-acetic acid] was 10.3 nM.
The value for `Cc1c(CC(=O)O)cc2ccc(F)cc2c1Oc1ccc(S(=O)(=O)c2ccc(Cl)cc2)cc1` [Example 2-31, {4-[4-(4-chloro-benzenesulfonyl)-phenoxy]-6-fluoro-3-methyl-naphthalen-2-yl}-acetic acid] was 3.6 nM.
The figure for `CCS(=O)(=O)c1ccc(Oc2c(C)c(C(C)C(=O)O)cc3ccc(F)cc23)nc1` (stereo not shown) [Example 22-1, 2-[4-(5-Ethanesulfonyl-pyridin-2-yloxy)-6-fluoro-3-methyl-naphthalen-2-yl]-propionic acid] is 378 nM; for `Cc1c(CC(=O)O)cc2ccc(F)cc2c1Oc1ccc(S(C)(=O)=O)cc1F` [Example 2-12, [6-fluoro-4-(2-fluoro-4-methanesulfonyl-phenoxy)-3-methyl-naphthalen-2-yl]-acetic acid] it is 1.8 nM; for `CCc1cc(S(=O)(=O)CC)cnc1Oc1c(C)c(CC(=O)O)cc2ccc(F)cc12` [Example 20-1, [4-(5-Ethanesulfonyl-3-ethyl-pyridin-2-yloxy)-6-fluoro-3-methyl-naphthalen-2-yl]-acetic acid] it is 2.9 nM.
Compound `Cc1cc(S(C)(=O)=O)cnc1Oc1c(C)c(CC(=O)O)cc2ccc(F)cc12` [Example 2-34, [6-fluoro-4-(5-methanesulfonyl-3-methyl-pyridin-2-yloxy)-3-methyl-naphthalen-2-yl]-acetic acid] yielded an IC50 of 3.1 nM. This IC50 and that of the compound before are within 1.5-fold of each other.
As for `Cc1c(CC(=O)O)cc2ccc(F)cc2c1Oc1ccc(S(=O)(=O)c2ccccc2)cc1` [Example 2-28, [4-(4-benzenesulfonyl-phenoxy)-6-fluoro-3-methyl-naphthalen-2-yl]-acetic acid], the half-inhibitory concentration (IC50) is 5 nM.
The figure for `C=Cc1c(CC(=O)O)cc2ccc(F)cc2c1Oc1ccc(S(=O)(=O)CC)cn1` [Example 17-1, [4-(5-Ethanesulfonyl-pyridin-2-yloxy)-6-fluoro-3-vinyl-naphthalen-2-yl]-acetic acid] is 12.4 nM.
The compound `Cc1cc(Oc2c(C)c(CC(=O)O)cc3ccc(F)cc23)ccc1S(C)(=O)=O` [Example 2-6, [6-fluoro-4-(4-methanesulfonyl-3-methyl-phenoxy)-3-methyl-naphthalen-2-yl]-acetic acid] returned an IC50 of 2.7 nM. This IC50 lies about 4.6-fold lower than the previous one.
The figure for `Cc1c(CC(=O)O)cc2ccc(F)cc2c1Oc1ccc(S(=O)(=O)N2CCOCC2)cc1` [Example 2-40, {6-fluoro-3-methyl-4-[4-(morpholine-4-sulfonyl)-phenoxy]-naphthalen-2-yl}-acetic acid] is 6.3 nM; for `Cc1c(CC(=O)O)cc2ccc(F)cc2c1Oc1ccc(S(C)(=O)=O)c(F)c1` [Example 2-16, [6-fluoro-4-(3-fluoro-4-methanesulfonyl-phenoxy)-3-methyl-naphthalen-2-yl]-acetic acid] it is 3.4 nM.
Turning to `CCS(=O)(=O)c1ccc(Oc2cc(CC(=O)O)cc3ccc(Br)cc23)nc1` [Example 12-1, [6-Bromo-4-(5-ethanesulfonyl-pyridin-2-yloxy)-naphthalen-2-yl]-acetic acid], the IC50 stood at 5.3 nM. This IC50 lies about 1.6-fold higher than the previous one.
The figure for `Cc1c(CC(=O)O)cc2ccc(F)cc2c1Oc1ccc(S(=O)(=O)N2CCN(C)CC2)cc1` [Example 2-41, {6-fluoro-3-methyl-4-[4-(4-methyl-piperazine-1-sulfonyl)-phenoxy]-naphthalen-2-yl}-acetic acid] is 1.7 nM.
The value for `Cc1cc(S(C)(=O)=O)ccc1Oc1cc(CC(=O)O)cc2ccc(F)cc12` [Example 1-6, [6-fluoro-4-(4-methanesulfonyl-2-methyl-phenoxy)-naphthalen-2-yl]-acetic acid] was 7.1 nM; that for `Cc1c(CC(=O)O)cc2ccccc2c1Oc1ccc(S(C)(=O)=O)cc1` [Example 3-2, [4-(4-methanesulfonyl-phenoxy)-3-methyl-naphthalen-2-yl]-acetic acid] was 4.7 nM.
The figure for `CCS(=O)(=O)c1ccc(Oc2c(C)c(CC(=O)O)cc3ccc(F)cc23)c(F)c1` [Example 2-13, [4-(4-ethanesulfonyl-2-fluoro-phenoxy)-6-fluoro-3-methyl-naphthalen-2-yl]-acetic acid] is 2.4 nM; for `CCS(=O)(=O)c1ccc(Oc2cc(CC(=O)O)cc3ccc(OC)cc23)cc1` [Example 1-15, [4-(4-Ethanesulfonyl-phenoxy)-6-methoxy-naphthalen-2-yl]-acetic acid] it is 5.3 nM.
With `Cc1c(CC(=O)O)cc2ccc(F)cc2c1Oc1ccc(S(C)(=O)=O)c(Cl)c1` [Example 2-11, [4-(3-chloro-4-methanesulfonyl-phenoxy)-6-fluoro-3-methyl-naphthalen-2-yl]-acetic acid], the IC50 was determined as 3 nM.
The figure for `O=C(O)Cc1cc(Oc2ccc(S(=O)(=O)C3CC3)cc2)c2cc(F)ccc2c1` [Example 1-5, [4-(4-cyclopropanesulfonyl-phenoxy)-6-fluoro-naphthalen-2-yl]-acetic acid] is 9.3 nM; for `CCS(=O)(=O)c1cnc(Oc2cc(CC(=O)O)cc3ccc(F)cc23)c(C)c1` [Example 1-12, [4-(5-ethanesulfonyl-3-methyl-pyridin-2-yloxy)-6-fluoro-naphthalen-2-yl]-acetic acid] it is 2.5 nM.
`CCS(=O)(=O)c1ccc(Oc2cc(CC(=O)O)c(F)c3ccc(F)cc23)nc1` [Example 4-2, [1,6-difluoro-4-(5-ethanesulfonyl-pyridin-2-yloxy)-naphthalen-2-yl]-acetic acid] displayed an IC50 of 21.3 nM. Compared with the last compound, the IC50 is about 8.5-fold higher.
The value for `Cc1c(CC(=O)O)cc2ccc(F)cc2c1Oc1ncc(S(C)(=O)=O)cc1Br` [Example 2-36, [4-(3-bromo-5-methanesulfonyl-pyridin-2-yloxy)-6-fluoro-3-methyl-naphthalen-2-yl]-acetic acid] was 0.02 nM; that for `CCS(=O)(=O)c1ccc(Oc2c(C)c(CC(=O)O)cc3ccc(F)cc23)cc1F` [Example 2-17, [4-(4-ethanesulfonyl-3-fluoro-phenoxy)-6-fluoro-3-methyl-naphthalen-2-yl]-acetic acid] was 3.7 nM.
The value for `CCS(=O)(=O)c1ccc(Oc2cc(CC(=O)O)cc3ccc(OC)cc23)nc1` [Example 1-21, [4-(5-Ethanesulfonyl-pyridin-2-yloxy)-6-methoxy-naphthalen-2-yl]-acetic acid] was 4.7 nM; that for `CCS(=O)(=O)c1cc(F)c(Oc2c(C)c(CC(=O)O)cc3ccc(F)cc23)cc1Cl` [Example 2-24, [4-(5-chloro-4-ethanesulfonyl-2-fluoro-phenoxy)-6-fluoro-3-methyl-naphthalen-2-yl]-acetic acid] was 8.2 nM.

These data come from US8642629B2, “Naphthylacetic acids” (Hoffmann-La Roche Inc., priority 2008, dated 2014).
